target: T1, human GLP1R (Homo sapiens, UniProt P43220); test: Human GLP-1 receptor transfected cell assay (MRE/CRE-luciferase reporter gene, agonist activity); type: cell-based; conditions: 6 h; conc. 10 μM; percentage of the activity of the control; read-out: Agonist Activity
T1 construct: expressed in transfected cells; host or cells: CHO cells (ATCC), transient transfection with pCMV-human GLP1R
Experimental: The glucagon-like peptide I receptor (GLP1R) is a class B Gs-coupled membrane receptor, an agonist of which activates adenylate cyclase (AC) and elevates intracellular cAMP level. In turn, the high content of secondary messengers can activate the cAMP response element binding protein (CREB), which can translocate into nucleus to activate gene transcription.
A reporter gene based screening assay was established to measure the effect of a compound on GLP1R. In this assay, a compound was incubated with CHO cells transiently transfected with a human GLP1R plasmid and a multiple response element (MRE)/cAMP response element (CRE)-driven luciferase reporter plasmid. Once luciferase was induced by the compound, its specific substrate can be activated to produce light signal for measurement.
Materials used in this assay included: (i) cell line: Chinese hamster ovary (CHO) cells (ATCC); (ii) fetal bovine serum (FBS) (Biochrom Co.); (iii) culture medium: RPMI1640 (Invitrogen Co.) supplemented with 10% FBS; (iv) LIPOFECTAMINE™ 2000 Reagent (Invitrogen Co.); (v) plasmids: pCMV-human GLP1R and pGL3-1905 reporter plasmid; (vi) GLP1 (7-36 amide) peptide (Sigma Co.); and (vii) BRIGHT-GLO™ Luciferase Assay System (Promega Co.).
Instruments used in this assay included: (i) Form a carbon dioxide incubator (Thermo Form a Co.); and (ii) Flexstation 3 (Molecular Device Co.).
Before transfection, CHO cells were plated into a 6-well culture plate at 800,000/2 mL/well, and cultured at 37° C. in 5% CO2 overnight. On the transfection day, cells were transfected with receptor plasmid and reporter plasmid using LIPOFECTAMINE™ 2000 reagent. After 6-hour transfection, cells were digested and seeded into 96-well plates at 20,000/100 μL/well. After 14-16 hour incubation, transfected cells were washed with 100 μL serum-free RPMII 640 medium first, and then added 50 μL of the culture medium. The GLP-1 standard and test compounds were respectively diluted to a series of concentrations, which were then added into the above 96-well culture plate at 50 μL/well. The cells were incubated at 37° C. in 5% CO2 for 6 hrs. The activity of luciferase was detected using BRIGHT-GLO™ Luciferase Analytic System, and the reading was performed with a Flexstation3 plate reader machine.

T1 sequence (P43220 24-463): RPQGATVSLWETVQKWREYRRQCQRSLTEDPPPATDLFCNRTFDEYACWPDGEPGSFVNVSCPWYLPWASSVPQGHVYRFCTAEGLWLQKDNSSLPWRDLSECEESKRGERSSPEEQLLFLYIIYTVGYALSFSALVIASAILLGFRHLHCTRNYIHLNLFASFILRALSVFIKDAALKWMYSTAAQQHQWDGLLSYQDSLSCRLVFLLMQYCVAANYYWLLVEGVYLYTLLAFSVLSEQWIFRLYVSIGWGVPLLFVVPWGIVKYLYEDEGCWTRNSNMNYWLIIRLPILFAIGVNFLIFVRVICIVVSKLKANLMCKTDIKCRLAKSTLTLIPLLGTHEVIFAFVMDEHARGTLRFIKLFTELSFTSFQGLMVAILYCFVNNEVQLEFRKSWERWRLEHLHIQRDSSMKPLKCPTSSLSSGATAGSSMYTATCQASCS

| activation at 10 µM [%] | SMILES |
| --- | --- |
| > 60 | CC(C)(C)OC(=O)Nc1ccc(-c2nc(-c3ccc(CC(NC(=O)Nc4ccc(-c5ccc(C(F)(F)F)cc5)cn4)C(=O)O)cc3F)no2)cc1 (stereo not drawn) [Compound 13K] |
| 40 to 60 | Cc1ccc(-c2ccc(C(=O)NC(Cc3ccc(-c4noc(-c5ccc(NC(=O)OC(C)(C)C)c(C)c5)n4)c(F)c3)C(=O)O)o2)cc1 (stereo not drawn) [Compound 14D] |
| > 60 | CC(C)(C)OC(=O)Nc1ccc(-c2nc(-c3ccc(CC(NC(=O)N4CCN(c5cccc(C(F)(F)F)c5)CC4)C(=O)O)cc3F)no2)cc1 (stereo not drawn) [Compound 12F] |
| 20 to 40 | CN1CCN(c2ccc(C(=O)NC(Cc3ccc(-c4noc(-c5ccc(NC(=O)OC(C)(C)C)cc5)n4)c(F)c3)C(=O)O)o2)CC1 (stereo not drawn) [Compound 11U] |
| 20 to 40 | Cc1ccc(CNC(=O)C(Cc2ccc(OC(=O)c3ccc(NC(=O)OC(C)(C)C)cc3)c(F)c2)c2nnn[nH]2)cc1 (stereo not drawn) [Compound 11D] |
| > 60 | CC(C)(C)OC(=O)Nc1ccc(-c2nc(-c3ccc(CC(NS(=O)(=O)c4ccc(-c5ccccc5)cc4)C(=O)O)cc3F)no2)cc1 (stereo not drawn) [Compound 11K] |
| > 60 | Cc1ccc(-c2cncc(C(=O)NC(Cc3ccc(-c4noc(-c5ccc(NC(=O)OC(C)(C)C)cc5)n4)c(F)c3)C(=O)O)c2)cc1 (stereo not drawn) [Compound 14B] |
| > 60 | CC(C)(C)OC(=O)Nc1ccc(-c2nc(-c3ccc(CC(NC(=O)N4CCN(c5ccc(C(F)(F)F)cc5)CC4)C(=O)O)cc3F)no2)cc1 (stereo not drawn) [Compound 12A] |
| > 60 | Cc1ccc(-c2cc(NC(=O)NC(Cc3ccc(-c4noc(-c5ccc(NC(=O)OC(C)(C)C)cc5)n4)c(F)c3)C(=O)O)[nH]n2)cc1 (stereo not drawn) [Compound 12G] |
| > 60 | Cc1ccc(CN2CCN(C(=O)NC(Cc3ccc(-c4noc(-c5ccc(NC(=O)OC(C)(C)C)cc5)n4)c(F)c3)C(=O)O)CC2)cc1 (stereo not drawn) [Compound 11Q] |
| > 60 | Cc1ccc(-c2cc(C(=O)NC(Cc3ccc(-c4noc(-c5ccc(NC(=O)OC(C)(C)C)cc5)n4)c(F)c3)C(=O)O)ccn2)cc1 (stereo not drawn) [Compound 14C] |
| > 60 | CC(C)(C)OC(=O)Nc1ccc(-c2nc(-c3ccc(CC(NC(=O)c4cn(-c5ccc(C(C)(C)C)cc5)nn4)C(=O)O)cc3F)no2)cc1 (stereo not drawn) [Compound 11V] |

same assay, conditions: 6 h; concentration 1 μM; read-out: Activity (agonist), percentage of the activity of the control

| SMILES | activation at 1 µM [%] |
| --- | --- |
| Cc1cccc(CN2CCN(S(=O)(=O)NC(Cc3ccc(-c4noc(-c5ccc(NC(=O)OC(C)(C)C)cc5)n4)c(F)c3)C(=O)O)CC2)c1 (stereo not drawn) [Compound 4C] | > 60 |
| CC(C)(C)OC(=O)Nc1ccc(-c2nc(-c3ccc(CC(NS(=O)(=O)c4ccc(Br)c(F)c4)C(=O)O)cc3F)no2)cc1 (stereo not drawn) [Compound 3O] | 20 to 40 |
| CC(C)(C)OC(=O)Nc1ccc(-c2nc(-c3ccc(CC(NC(=O)c4cccc(-c5ccc(F)cc5)c4)C(=O)O)cc3F)no2)cc1 (stereo not drawn) [Compound 1V] | 40 to 60 |

The remaining lines, values ahead:

| activation at 1 µM [%] | SMILES |
| --- | --- |
| > 60 | Cc1ccc(-c2cccc(C(=O)NC(Cc3ccc(-c4noc(-c5ccc(NC(=O)OC(C)(C)C)cc5)n4)nc3)C(=O)O)c2)cc1 (stereo not drawn) [Compound 5K] |
| 20 to 40 | CC(C)Oc1ccc(-c2ccc(C(=O)N[C@H](Cc3ccc(-c4noc(-c5ccc(NC(=O)OC(C)(C)C)cc5)n4)c(F)c3)C(=O)O)o2)cc1F [Compound 6O] |
| 20 to 40 | Cc1ccc(-c2cccc(C(=O)N[C@H](Cc3ccc(-c4noc(-c5ccc(NC(=O)OC(C)(C)C)cc5)n4)c(F)c3)C(=O)O)c2)cc1F [Compound 6L] |
| 40 to 60 | Cc1ccc(-c2ccc(C(=O)N[C@H](Cc3ccc(-c4noc(-c5ccc(NC(=O)OC(C)(C)C)cc5)n4)cn3)C(=O)O)o2)cc1 [Compound 6Q] |
| > 60 | Cc1ccc(-c2ccc(C(=O)NC(Cc3cc(F)cc(C#Cc4ccc(NC(=O)OC(C)(C)C)cc4)c3)C(=O)O)o2)cc1 (stereo not drawn) [Compound 7E] |

same assay, conditions: 6 h; concentration 3 μM; read-out: Activity (agonist), percentage of the activity of the control

| activation at 3 µM [%] | SMILES |
| --- | --- |
| 40 to 60 | CC(C)(C)OC(=O)Nc1ccc(-c2nc(-c3ccc(CC(NC(=O)/C=C/c4ccc(Cl)c(C(F)(F)F)c4)C(=O)O)cc3F)no2)cc1 (stereo not drawn) [Compound 2B] |
| 20 to 40 | Cc1cccnc1N1CCCN(C(=O)NC(Cc2ccc(-c3noc(-c4ccc(NC(=O)OC(C)(C)C)cc4)n3)c(F)c2)C(=O)O)CC1 (stereo not drawn) [Compound 4R] |

same assay, conditions: 6 h; concentration 3.16 μM; read-out: Activity (agonist), percentage of the activity of the control

| SMILES | activation at 3.16 µM [%] |
| --- | --- |
| CN(C)c1ccc(-c2ccc(C(=O)NC(Cc3ccc(-c4noc(-c5ccc(NC(=O)OC(C)(C)C)cc5)n4)c(F)c3)C(=O)O)o2)cc1 (stereo not drawn) [Compound 1I] | > 60 |
| CC(C)c1ccc(-c2ccc(C(=O)NC(Cc3ccc(-c4noc(-c5ccc(NC(=O)OC(C)(C)C)cc5)n4)c(F)c3)C(=O)O)o2)cc1 (stereo not drawn) [Compound 1O] | 20 to 40 |
| CC(C)(C)OC(=O)Nc1ccc(-c2nc(-c3ccc(CC(NC(=O)N4CCN(C(=O)OC(C)(C)C)CC4)C(=O)O)cc3F)no2)cc1 (stereo not drawn) [Compound 4F] | 40 to 60 |
| CC(C)(C)OC(=O)Nc1ccc(-c2nc(-c3ccc(CC(NC(=O)C4CC4c4ccccc4)C(=O)O)cc3F)no2)cc1 (stereo not drawn) [Compound 1D] | 20 to 40 |
| CC(C)(C)OC(=O)Nc1ccc(-c2nc(-c3ccc(CC(NC(=O)Nc4ccc(Br)nc4)C(=O)O)cc3F)no2)cc1 (stereo not drawn) [Compound 4N] | 20 to 40 |
| CC(C)(C)OC(=O)Nc1ccc(-c2nc(-c3ccc(CC(NC(=O)c4cnn(-c5ccc(F)c(F)c5)c4)C(=O)O)cc3F)no2)cc1 (stereo not drawn) [Compound 2Z] | > 60 |
| Cc1ccc(S(=O)(=O)NC(C)(Cc2ccc(-c3noc(-c4ccc(NC(=O)OC(C)(C)C)cc4)n3)c(F)c2)C(=O)O)cc1 (stereo not drawn) [Compound 3N] | 20 to 40 |
| Cc1cc(Cn2cc(C(=O)NC(Cc3ccc(-c4noc(-c5ccc(NC(=O)OC(C)(C)C)cc5)n4)c(F)c3)C(=O)O)cn2)ccc1F (stereo not drawn) [Compound 3F] | 20 to 40 |
| CC(C)(C)OC(=O)Nc1ccc(C(=O)NC(C)(Cc2ccc(OC(=O)c3ccc(NC(=O)OC(C)(C)C)cc3)c(F)c2)C(=O)O)cc1 (stereo not drawn) [Compound 1B] | > 60 |

Other lines, results leading:

| activation at 3.16 µM [%] | SMILES |
| --- | --- |
| > 60 | Cc1ccc(-c2ccc(C(=O)NC(Cc3ccc(-c4noc(-c5ccc(NC(=O)OC(C)(C)C)cc5)n4)cc3C(F)(F)F)C(=O)O)o2)cc1 (stereo not drawn) [Compound 5J] |
| 40 to 60 | CC(C)(C)OC(=O)Nc1ccc(/C=C/c2ccc(CC(NC(=O)c3ccc(NC(=O)OC(C)(C)C)cc3)C(=O)O)cc2F)cc1 (stereo not drawn) [Compound 5R] |
| > 60 | Cc1ccc(-c2ccc(C(=O)NC(Cc3ccc(F)c(C#Cc4ccc(NC(=O)OC(C)(C)C)cc4)c3)C(=O)O)o2)cc1 (stereo not drawn) [Compound 6E] |

same assay, conditions: 6 h; concentration 5 μM; read-out: Activity (agonist), percentage of the activity of the control

| activation at 5 µM [%] | SMILES |
| --- | --- |
| > 60 | Cc1ccc(-c2ccc(C(=O)NC(Cc3ccc(OC(=O)c4ccc(NC(=O)OC(C)(C)C)cc4)c(F)c3)C(=O)O)o2)cc1 (stereo not drawn) [Compound 1A] |

same assay, conditions: 6 h; concentration 10 μM; read-out: Activity (agonist), percentage of the activity of the control

| SMILES | activation at 10 µM [%] |
| --- | --- |
| CC(C)(C)OC(=O)Nc1ccc(-c2nc(-c3ccc(CC(NC(=O)c4cccc(-c5ccc(F)cc5)n4)C(=O)O)cc3F)no2)cc1 (stereo not drawn) [Compound 1T] | 40 to 60 |
| Cc1ccc(-c2nc(C(=O)NC(Cc3ccc(-c4noc(-c5ccc(NC(=O)OC(C)(C)C)cc5)n4)c(F)c3)C(=O)O)co2)cc1 (stereo not drawn) [Compound 2X] | > 60 |
| CCc1ccc(-c2cccc(C(=O)NC(Cc3ccc(-c4noc(-c5ccc(NC(=O)OC(C)(C)C)cc5)n4)c(F)c3)C(=O)O)c2)cc1 (stereo not drawn) [Compound 2I] | 40 to 60 |
| Cc1ccc(-c2cccc(C(=O)NC(Cc3ccc(-c4noc(-c5ccc(NC(=O)OC(C)(C)C)cc5)n4)c(F)c3)C(=O)O)n2)cc1 (stereo not drawn) [Compound 2F] | 10 to 20 |
| Cc1ccc(-c2ccc(NC(=O)NC(Cc3ccc(-c4noc(-c5ccc(NC(=O)OC(C)(C)C)cc5)n4)c(F)c3)C(=O)O)nc2)cc1Cl (stereo not drawn) [Compound 4Z] | 40 to 60 |

Other lines, results leading:

| activation at 10 µM [%] | SMILES |
| --- | --- |
| > 60 | Cc1ccc(-c2ccc(C(=O)NC(Cc3cc(F)c(-c4noc(-c5ccc(NC(=O)OC(C)(C)C)cc5)n4)c(F)c3)C(=O)O)o2)cc1 (stereo not drawn) [Compound 5L] |
| > 60 | CC(C)Oc1ccc(-c2cccc(C(=O)N[C@H](Cc3ccc(-c4noc(-c5ccc(NC(=O)OC(C)(C)C)cc5)n4)c(F)c3)C(=O)O)c2)cc1 [Compound 6K] |
| > 60 | Cc1ccc(-c2ccc(C(=O)N[C@H](Cc3ccc(-c4cn(-c5ccc(NC(=O)OC(C)C)cc5)nn4)c(F)c3)C(=O)O)o2)cc1 [Compound 5Q] |
| > 60 | Cc1ccc(-c2ccc(NC(=O)NC(Cc3ccc(-c4noc(-c5ccc(NC(=O)OC(C)(C)C)cc5)n4)c(F)c3)C(=O)O)nc2)cc1F (stereo not drawn) [Compound 5F] |
| > 60 | COc1cc2c(cc1OC(=O)c1ccc(NC(=O)OC(C)(C)C)cc1)CN(S(=O)(=O)c1ccc(C)cc1)C(C(=O)O)C2 (stereo not drawn) [Compound 5V] |

From patent publication US8748412B2, “Phenylalanine derivatives and their use as non-peptide GLP-1 receptor modulators” (Argusina Bioscience Inc., priority 2011, dated 2014)
